In patent US6541463B1, “Inhibitors of type 5 and type 3 17β-hydroxysteroid dehydrogenase and methods for their use” (Endorecherche, Inc., priority 1998, dated 2003):

Tested on: Shionogi mouse mammary carcinoma cells
Experiment: Androgenic activity: stimulation of proliferation of Shionogi cells
Type: cell-based
Experimental: In column 9, the androgenic activity of preferred type 5 inhibitors expressed as the percentage of stimulation of proliferation of Shionogi cells at concentrations of 10^−7 M (left number) and 10^−6 M (right number) of inhibitor. The manner in which the stimulation is determined is described in “Other Tests; B-Androgenic/Antiandrogenic Activity”. Lower numbers are desirable. ND means that a determination was not done.
Androgenic/antiandrogenic activity of some preferred compounds has been measured using the Shionogi mouse mammary carcinoma cells.
Minimal essential culture medium (MEM), non-essential amino acids, and fetal calf serum were purchased from Flow Laboratories. In order to remove endogenous steroids, serum was incubated overnight at 4° C. with 1% activated charcoal (Norit A, Fisher) and 0.1% Dextran T-70 (Pharmacia). A 2-h supplementary adsorption was performed at 25° C. in order to further remove protein-bound steroids. Serum was also inactivated by a 20-min incubation at 56° C.
5α-dihydrotestosterone (DHT) was obtained from Steraloids. The antiandrogen hydroxyflutamide (OH-FLU) was kindly supplied by Drs. T. L. Nagabuschan and R. Neri (Schering Corporation, Kenilworth, U.S.A.).
Shionogi male mice bearing androgen-sensitive mammary tumors were obtained from Drs. Keishi Matsumoto, Osaka, Japan, and Yvonne Lefebvre, Ottawa, Canada. For primary culture, tumors were excised and washed in ice-cold sterile 25 mM Hepes buffer (137 mM NaCl; 5 mM KCl; 0.7 mM Na2HPO4; 10 mM glucose, pH 7.2). After mincing with scissors, the tumor minces were digested for 2 h at 37° C. in Hepes buffer containing 3.8 mg/ml collagenase (Clostridium, Boehringer), 1.5 mg/ml hyaluronidase II (Sigma), and 3% bovine serum albumin fraction V (Schwartz-Mann). Dispersed cells were collected by centrifugation (500×g for 10 min), washed twice by suspension in minimal essential medium (MEM) containing 5% dextran-coated charcoal-treated fetal calf serum (DCC-FCS), 1% non-essential amino acids, 10 IU/ml penicillin, 50 μg/ml streptomycin, and 100 nM dihydrotestosterone (DHT) (Steraloids).
Cells were plated in the same medium at a density of 75 000 cells/ml in 75 cm^2 flasks under an atmosphere of 5% carbon dioxide in air at 37° C. The medium was changed weekly. The steroids and antisteroids were dissolved in ethanol and kept in stock solutions chosen to yield final ethanol concentrations less than 0.01% in the culture medium.
Cells were subcultured at near-confidence by gentle digestion in a solution of 0.1% pancreatin (Flow Laboratories) in Hepes buffer containing 3 mM ethylenediaminetetraacetic acid (EDTA) (pH 7.2). Cells were pelleted by centrifugation, resuspended in culture medium, counted in a Coulter counter, and replated as described above. Soft agar cloning was performed as described (Stanley et al., Cell 10: 35-44, 1977) in the presence of 100 nM DHT.
Cells were plated in 24-well plates at a density of 20 000 cells/well. The indicated increasing concentrations of agents were added to triplicate dishes, and cells were grown for 10-12 days with changes of medium every 3-4 days. Cell number was measured by direct counting in a Coulter counter.
ED50 values of action of DHT and glucocorticoids were calculated according to a least-square regression as described (Rodbard, Endocrinology 94: 1427-1431, 1974). Statistical significance was calculated according to a multiple-range test (Kramer, Biometrics 12: 307-310,1956).

Compound	Androgenic Activity Shionogi, Basal E^−6 (Table 4′) [%]	Androgenic Activity Shionogi, Basal E^−7 (Table 4′) [%]	Androgenic Activity Shionogi, Basal E^−6	Androgenic Activity Shionogi, Basal E^−7
CC1(C)CCC2(CCC3C4CCc5cc(C(=O)OCc6ccccc6)ccc5C4CCC32C)OC1=O (stereo not drawn) [EM-1398]	−10	13	–	–
CC1(C)CCC2(CCC3C4CCc5cc(O)c(C#N)cc5C4CCC32C)OC1=O (stereo not drawn) [EM-01645]	35	−5	–	–
COC(=O)C1CCC2(CCC3C4CCc5cc(O)ccc5C4CCC32C)OC1=O [PB-132-146, 3-Hydroxy-1,3,5(10)-estratrien-17(R)-2′-(5′-methoxycarbonyl-6′-oxo)tetrahydropyran]	0	29	–	–
C=CCC1CCC2(CCC3C4CCc5cc(O)ccc5C4CCC32C)OC1=O [PB-132-152, 3-Hydroxy-1,3,5(10)-estratrien-17(R)-2′-(5′-allyl-6′-oxo)tetrahydropyran]	0	39	–	–
COCCOc1cc2c(cc1F)C1CCC3(C)C(CCC34CCC(C)(C)C(=O)O4)C1CC2 (stereo not drawn) [EM-1393-CS]	−10	88	–	–
CN(C)C(=O)c1cc2c(cc1O)CCC1C2CCC2(C)C1CCC21CCC(C)(C)C(=O)O1 (stereo not drawn) [EM-01661-B]	−13	0	–	–
CC1(C)CCC2(CCC3C4CCc5cc(O)c(C(N)=O)cc5C4CCC32C)OC1=O (stereo not drawn) [EM-01660]	−31	−4	–	–
CC1=C[C@@H]2[C@H](CC[C@]3(C)C(=O)C4(CCCCC4)C[C@@H]23)[C@@]2(C)CCC(=O)C=C12 [EM-925]	–	–	−4	11
COc1cc2c(cc1C(F)(F)F)C1CCC3(C)C(CCC34CCC(C)(C)C(=O)O4)C1CC2 [EM-1409, 3-Methoxy-2-trifluoromethyl-1,3,5(10)-estratrien-17(R)-spiro-2′-(5′,5′-dimethyl-6′-oxo)tetrahydropyran]	−23	5	–	–
CC1CC(=O)OC2(CCC3C4CCc5cc(O)ccc5C4CCC32C)C1 [PB-132-142, 3-Hydroxy-1,3,5(10)-estratrien-17(R)-spiro-2′-(4′-methyl-6′-oxo)tetrahydropyran]	−17	25	–	–
COC(=O)c1cc2c(cc1O)CCC1C2CCC2(C)C1CCC21CCC(C)(C)C(=O)O1 (stereo not drawn) [EM-01662]	−27	0	–	–
CC12CCC3c4ccc(O)cc4CCC3C1CCC21CC=CC(=O)O1 [PB-132-140, 3-hydroxy-1,3,5(10)-estratrien-17(R)-spiro-2′-(4′,5′-dihydro-6′-oxo)pyran]	−18	30	–	–
